Assay results: patent US20230174608A1, “Polypeptide Derivative Having Dual Receptor Agonistic Action and Use Thereof” (TIANJIN INSTITUTE OF PHARMACEUTICAL RESEARCH CO., LTD., priority 2020, published 2023)
Where a SMILES comes first, the peptide text is derived from it.

What was measured:
GLP-1R = target: T1, GLP-1R (Homo sapiens, UniProt P43220); assay: GLP-1 receptor-mediated cAMP production in vitro; assay type: cell-based; conditions: HEK293 cell line stably expressing GLP-1R
T1 construct: expressed in transfected cells
T1 sequence (P43220 24-463, species assumed): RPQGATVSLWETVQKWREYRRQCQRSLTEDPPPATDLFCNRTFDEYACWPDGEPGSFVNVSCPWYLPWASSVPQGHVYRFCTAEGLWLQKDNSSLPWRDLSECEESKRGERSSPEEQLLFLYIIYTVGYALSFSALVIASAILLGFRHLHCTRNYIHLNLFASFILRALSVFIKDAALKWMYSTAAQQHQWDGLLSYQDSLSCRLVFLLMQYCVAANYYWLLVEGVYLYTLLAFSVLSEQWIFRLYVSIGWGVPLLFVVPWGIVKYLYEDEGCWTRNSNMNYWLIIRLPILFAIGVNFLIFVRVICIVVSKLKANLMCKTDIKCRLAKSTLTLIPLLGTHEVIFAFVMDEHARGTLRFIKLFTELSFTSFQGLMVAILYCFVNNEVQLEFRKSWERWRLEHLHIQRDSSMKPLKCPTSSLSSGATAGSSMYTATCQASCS
Procedure, shortened: (§1)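 HEK293 cells stably expressing human GLP-1R or GCGR are stimulated with compound for 30 min in the dark in serum-free medium with 0.5 mM IBMX, with test dilutions spanning 1 μM down to 10^−3 nM. cAMP is detected after a 60 min room-temperature reaction as the 665/615 nm ratio.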

[1] = test system: diet-induced obesity (DIO) mice; assay: DIO model mice, weight after 2 weeks of administration; assay type: in vivo, C57BL/6N mice; conditions: 30 nmol/kg s.c. once a day, 14 days
Description: Method: C57BL/6N mice were fed with H10060 high-fat diets to obtain diet-induced obesity (DIO) models, and mice in a control group (n=5) were fed with standard diets. One day before the first administration, the mice in the model group were randomly divided into 6 groups according to their weights (within a range of 40.5-50.5 g), i.e., a model control group, a positive control group, and test compound groups (dgc003, dgc004, dgc010, and dgc017), respectively, 5 mice in each group, which were administered once a day by subcutaneous injection. Saline was subcutaneously injected into each mouse in the blank control group and the model control group every day. The administration was performed for 14 days. The positive control drug and the test compounds were administered at a dose of 30 nmol/kg, and the administration volume for each group was 0.005 mL/g weight. The mice were weighed before each administration, and 72-h food intake was weighed every three days.

[2] = test system: glucose loaded normal mice; assay: Glucose loading test on normal mice after single administration; assay type: in vivo, Kunming mice
Procedure, shortened: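 Male Kunming mice (20-22 g), 5 per group, fasted 6 h, received compound or semaglutide at 30 nmol/kg or saline. Glucose 2.5 g/kg given intragastrically 60 min post-dose; blood glucose measured 30 min after glucose loading.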

GCGR = target: T2, GCGR (Homo sapiens, UniProt P47871); assay: GC receptor-mediated cAMP production in vitro; assay type: cell-based; conditions: HEK293 cell line stably expressing GCGR
T2 construct: expressed in transfected cells
T2 sequence (P47871 26-477, species assumed): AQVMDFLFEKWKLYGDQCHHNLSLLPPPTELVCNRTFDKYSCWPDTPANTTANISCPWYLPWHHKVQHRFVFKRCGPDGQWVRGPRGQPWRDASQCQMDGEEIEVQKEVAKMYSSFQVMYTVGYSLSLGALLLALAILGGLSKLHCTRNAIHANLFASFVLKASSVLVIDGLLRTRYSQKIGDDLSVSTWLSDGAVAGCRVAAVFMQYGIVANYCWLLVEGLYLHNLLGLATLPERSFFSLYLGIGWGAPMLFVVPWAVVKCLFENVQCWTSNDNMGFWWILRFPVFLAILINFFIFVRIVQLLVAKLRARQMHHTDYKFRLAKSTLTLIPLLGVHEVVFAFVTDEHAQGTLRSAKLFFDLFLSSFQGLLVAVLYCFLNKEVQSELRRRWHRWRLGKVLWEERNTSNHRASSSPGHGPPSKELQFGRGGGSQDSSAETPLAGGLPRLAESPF
Procedure, shortened: as §1

In the case of CCCCCCCCCCCCCCCC(=O)N[C@@H](CCC(=O)NCCCC[C@H](NC(=O)[C@H](C)NC(=O)[C@H](C)NC(=O)[C@H](CCCCN)NC(=O)[C@H](CCC(=O)O)NC(=O)[C@H](CC(=O)O)NC(=O)[C@H](CC(C)C)NC(=O)[C@H](Cc1ccc(O)cc1)NC(=O)[C@H](CCCCN)NC(=O)[C@H](CO)NC(=O)[C@H](Cc1ccc(O)cc1)NC(=O)[C@H](CC(=O)O)NC(=O)[C@H](CO)NC(=O)[C@@H](NC(=O)[C@H](Cc1ccccc1)NC(=O)[C@@H](NC(=O)CNC(=O)[C@H](CCC(N)=O)NC(=O)C(C)(C)NC(=O)[C@@H](N)Cc1c[nH]cn1)[C@@H](C)O)[C@@H](C)O)C(=O)N[C@@H](CCC(=O)O)C(=O)N[C@@H](Cc1ccccc1)C(=O)N[C@H](C(=O)N[C@@H](C)C(=O)N[C@@H](Cc1c[nH]c2ccccc12)C(=O)N[C@@H](CC(C)C)C(=O)N[C@@H](CCC(=O)O)C(=O)NCC(=O)NCC(N)=O)[C@@H](C)CC)C(=O)O [dgc017] (HELM PEPTIDE1{H.[Aib].Q.G.T.F.T.S.D.Y.S.K.Y.L.D.E.K.A.A.K.E.F.I.A.W.L.E.G.G.[am]}|PEPTIDE2{[CCCCCCCCCCCCCCCC(=O)[*:2]].[gGlu]}$PEPTIDE1,PEPTIDE2,20:R3-2:R2$$$V2.0; N-terminus assumed), the EC50 (GLP-1R) was 0.627 nM, the “Weight decreasing rate by the last administration” value [1] was 15.9% and the “Blood glucose reduction rate (%)” value ([2]; 30 nmol/kg single dose, after glucose loading, versus model control group) was 39.06%. For the same molecule, the “Blood glucose level after glucose loading” value ([2]; 30 nmol/kg single dose, glucose 2.5 g/kg intragastric 60 min after administration, measured 30 min after loading, n=5) was 10.36 ± 1.87 mmol/L, the “Fasting blood glucose level” value ([2]; normal mice fasted 6 h, 30 nmol/kg group, n=5) was 3.72 ± 0.37 mmol/L and the EC50 (GCGR) was 3.95 nM.
